Series [1] has as its system HCV subgenomic replicon in Huh-7 cells. The experiment in a line: Replicon Assay (Example B), luciferase readout EC50. Type of series: cell-based. How it is done:
The activities of compounds of the invention against HCV in a cellular environment were analysed using a replicon assay as described below.
(§1) Thus, Huh-7 cells persistently infected with an HCV-RNA construct (Bartenschlager, R. Hepatitis C replicons: potential role for drug development. Nature Rev. Drug Discov. 1, 911-916 (2002)) comprising: 5′ and 3′ non-translated regions (NTR); the non-structural genes NS3 to NS5b; as well as the G418 drug resistance gene, neomycin, (for selection of cells carrying HCV replicon RNA) fused to the firefly Luciferase reporter gene (pFKI3889Iuc-ubi-neo/NS3-3′/ET) were used to determine the cell based antiviral activity of compounds using luciferase activity as an indirect readout of HCV RNA load. In this assay […] huh-7 cells persistently infected with the HCV subgenomic replicon construct above were plated/well in a 96 well tissue culture plate. The cells were allowed to attach overnight in DMEM medium supplemented with 10% FBS 1% NEAA, and 250 μg/ml gentamicin. The following day the medium was replaced with 200 μl/well of fresh medium as described above lacking gentamicin. Semilog dilutions of compounds in medium were then added to triplicate wells (non-edge) of the cultured cells to give a 0.1% DMSO final concentration. Plates were then incubated at 37° C. in an atmosphere of 5% CO2 and air for 72 h. […] The plate was then read at 535 nm (excitation) and 590 nm (emission) on a SpectraMax Gemini reader (Molecular Devices) to determine the number of viable cells by measuring the conversion of rezasurin (Alamar blue) to resorufin in response to mitochondrial activity. In order to determine the antiviral effect of these compounds EC50 values were determined by measuring the luciferase activity of the cells. Alamar blue solution was removed from the wells and replaced with 100 μl/well of medium along with 100 μl/well of Bright-Glo reagent and incubated at room temperature for 5 minutes before transferring 100 μl/well to a white bottom 96 well plate to read in a luminometer as described in the Bright-Glo Luciferase Assay System protocol (promega).
(In general: In antiviral work, replicon cells carry a viral genome segment that copies itself.)

The target of a further series is full length NS3/4a (Hepatitis C virus genotype 1b (isolate BK) (HCV), UniProt P26663). The experiment in a line: NS3 Protease Assay (Example A), FRET-based. Type of series: biochemical. In short, it runs like this:
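Initial rates were taken from fluorescence progress curves over 30 min at room temperature, and IC50 was fitted across replicates. In-house full-length NS3/4a cleaved a FRET peptide (5-FAMsp/QXL520) from the NS4A/B site. Medium: 50 mM Tris pH8, 20 mM DTT, 1% CHAPS, 10% glycerol, 5% DMSO.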

Series [2] is described as follows: Replicon Assay (Example B), Alamar Blue cytotoxicity CC50. Type of series: cell-based. As to conditions: human, lower value of the cell pair.
Excerpt: as §1

[3] abbreviates: replicon assay, luciferase readout, upper value of the cell pair, read-out: Assay B EC50.
Where [4] appears, read: HCV NS3 protease assay, full length NS3/4a, read-out: Assay A IC50 (μM) average.
The mark [5] stands for this setting: read-out: IC50 against the protease activity of the full length NS3/4a.
[6] abbreviates: Hepatitis C virus, Huh-7, replicon assay, luciferase readout, upper value of the cell pair, read-out: Assay B EC50.

Data on 21 compounds can be found in patent publication US9145354B2, “Pharmaceutical compounds” (priority 2011, dated 2015).

As a reminder, the EC50 is the midpoint of the concentration-response curve. Broadly, the CC50 is the concentration at which the toxic effect on the cells reaches its halfway point. For orientation: inhibition means the change of the read-out against control, counted positive when it falls. Lower therefore signals little suppression.

Read-outs that look alike come from different tables or passages of the source. Some results are limits rather than exact numbers.

Sequence of full length NS3/4a (P26663 1027-1657): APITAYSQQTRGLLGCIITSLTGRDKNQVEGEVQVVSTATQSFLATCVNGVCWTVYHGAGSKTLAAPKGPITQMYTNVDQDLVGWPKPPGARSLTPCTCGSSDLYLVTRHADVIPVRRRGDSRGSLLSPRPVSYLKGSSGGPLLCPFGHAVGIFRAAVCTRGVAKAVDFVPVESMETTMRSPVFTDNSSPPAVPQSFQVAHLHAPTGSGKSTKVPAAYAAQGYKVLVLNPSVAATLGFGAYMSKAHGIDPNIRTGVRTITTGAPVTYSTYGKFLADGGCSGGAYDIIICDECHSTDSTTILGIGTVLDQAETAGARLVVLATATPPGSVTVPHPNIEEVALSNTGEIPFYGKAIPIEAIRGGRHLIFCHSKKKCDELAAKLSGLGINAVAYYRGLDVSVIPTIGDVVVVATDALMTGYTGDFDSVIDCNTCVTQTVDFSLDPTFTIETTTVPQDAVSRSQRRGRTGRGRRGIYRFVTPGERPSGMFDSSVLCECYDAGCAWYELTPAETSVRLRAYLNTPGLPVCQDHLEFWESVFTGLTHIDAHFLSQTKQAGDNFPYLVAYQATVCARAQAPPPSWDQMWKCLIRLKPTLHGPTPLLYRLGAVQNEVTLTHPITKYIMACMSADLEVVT

`CCC(NC1CCCC1C(N)=O)c1ccc(Cl)c(C(=O)c2ccc(N)nc2)c1F` (racemic) [Example 125, 2-{[1-{3-[(6-aminopyridin-3-yl)carbonyl]-4-chloro-2-fluorophenyl}propyl]amino} cyclopentane-1-carboxamide]: the EC50 in series [1] (setting [3]) is 79 nM.
In the case of `CCC(NC1CCCC1C(N)=O)c1ccc(Cl)c(C(=O)c2ccc(N)nc2)c1F` (racemic) [Example 127, 2-{[1-{3-[(6-aminopyridin-3-yl)carbonyl]-4-chloro-2-fluorophenyl}propyl]amino} cyclopentane-1-carboxamide], the EC50 in series [1] (setting [3]) was greater than 10000 nM.
Same read-out and setting: next, `CCC(NC1CCCC1C(N)=O)c1ccc(Cl)c(C(=O)c2ccc(N)nc2)c1F` (racemic) [Example 161, 2-{[1-{3-[(6-aminopyridin-3-yl)carbonyl]-4-chloro-2-fluorophenyl}propyl]amino} cyclopentane-1-carboxamide]: greater than 10000 nM.
As to `CCC(NC1CCCC1C(N)=O)c1ccc(Cl)c(C(=O)c2ccc(N)nc2)c1F` (single isomer, unassigned) [Example 125, 2-{[1-{3-[(6-aminopyridin-3-yl)carbonyl]-4-chloro-2-fluorophenyl}propyl]amino} cyclopentane-1-carboxamide], the IC50 at full length NS3/4a (setting [4]) was 0.29 µM; at full length NS3/4a (setting [5]), less than 1 µM. In series [2], this compound gave a CC50 at 72 h greater than 3000 nM.
As for `CC[C@@H](N)c1ccc(Cl)c(C(=O)c2ccccc2)c1F` [Example 4, (1R)-1-(3-benzoyl-4-chloro-2-fluorophenyl)propan-1-amine], the results for the IC50 on full length NS3/4a (setting [4]) and on full length NS3/4a (setting [5]) were 0.089 µM and less than 1 µM, respectively. Besides, the CC50 at 72 h in series [2] is greater than 10000 nM. The half-maximal effective concentration (EC50) in series [1] (setting [6]) is greater than 10000 nM.
As for `CC[C@@H](N)c1ccc(Cl)c(C(=O)c2ccc(C#N)cc2)c1F` [Example 9, 4-({3-[(1R)-1-aminopropyl]-6-chloro-2-fluorophenyl}carbonyl)-benzonitrile], the IC50 on full length NS3/4a (setting [4]) is 0.076 µM; at full length NS3/4a (setting [5]), less than 1 µM. The same compound showed a CC50 at 72 h in series [2] greater than 3000 nM. Also, in series [1] (setting [6]), the concentration giving a half-maximal response (EC50) was greater than 3000 nM.
As for `N[C@@H](c1ccc(Cl)c(C(=O)c2ccccc2)c1F)C1CC1` [Example 11, (R)-(3-benzoyl-4-chloro-2-fluorophenyl)-(cyclopropyl)-methanamine], the IC50 on full length NS3/4a (setting [4]) is 0.13 µM; on full length NS3/4a (setting [5]), less than 1 µM. In addition, the CC50 at 72 h in series [2] is greater than 3000 nM. For the same compound, in series [1] (setting [6]), the EC50 is greater than 3000 nM.
With `CCOC(=O)c1cnn(-c2ccc(C(=O)c3c(Cl)ccc([C@H](N)CC)c3F)cn2)c1` [Example 41, ethyl 1-[5-({3-[(1R)-1-aminopropyl]-6-chloro-2-fluorophenyl}carbonyl)pyridin-2-yl]-1H-pyrazole-4-carboxylate], the results for the IC50 on full length NS3/4a (setting [4]) and at full length NS3/4a (setting [5]) were 1.6 µM and 1 to 5 µM, respectively. Moreover, the EC50 in series [1] (setting [6]) was 9 nM.
With `COc1cc(C(=O)c2c(Cl)ccc([C@H](N)C3CC3)c2F)ccc1C#N` [Example 69, 4-({3-[(R)-amino(cyclopropyl)methyl]-6-chloro-2-fluorophenyl}carbonyl)-2-methoxybenzonitrile], the IC50 on full length NS3/4a (setting [4]) came to 0.052 µM. In series [2], this compound yielded a CC50 at 72 h greater than 1000 nM. In series [1] (setting [6]), the EC50 was 33 nM.
For the compound `CC[C@@H](N)c1ccc(Cl)c(C(=O)c2ccc(N)c(C#N)c2)c1F` [Example 72, 2-Amino-5-[3-((R)-1-amino-propyl)-6-chloro-2-fluoro-benzoyl]-benzonitrile], in series [1] (setting [6]), the half-maximal effective concentration (EC50) turned out to be 32 nM.
Same read-out and setting: next, `CC[C@@H](N)c1ccc(Cl)c(C(=O)c2ccc(N)c(Cl)c2)c1F` [Example 74, (4-Amino-3-chloro-phenyl)-[3-((R)-1-amino-propyl)-6-chloro-2-fluoro-phenyl]-methanone]: 32 nM.
With `CC[C@@H](N[C@@H](C)CC(N)=O)c1ccc(Cl)c(C(=O)c2ccc(N)nc2)c1F` [Example 81, (3S)-3-{[(1R)-1-{3-[(6-aminopyridin-3-yl)carbonyl]-4-chloro-2-fluorophenyl}propyl]-amino}butanamide], the IC50 on full length NS3/4a (setting [4]) is 0.22 µM. Moreover, the CC50 at 72 h in series [2] was greater than 3000 nM. Further, the EC50 in series [1] (Hepatitis C virus, Huh-7, pre-determined EC50 used to set concentrations in combination studies, read-out: EC50 (replicon)) was 20 nM; in series [1] (setting [6]) it was 18 nM.
Take `CC[C@@H](N[C@@H](C)CC(=O)NCCN)c1ccc(Cl)c(C(=O)c2ccccc2)c1F` [Example 88, (3S)-N-(2-aminoethyl)-3-{[(1R)-1-(3-benzoyl-4-chloro-2-fluorophenyl)propyl]-amino}butanamide]: on full length NS3/4a, the inhibition at 0.01 µM turned out to be 52%. In series [2], this compound gave a cytotoxic concentration (CC50) at 72 h greater than 3000 nM. In addition, in series [1] (setting [6]), the EC50 was found to be 45 nM.
As for `CC[C@@H](N[C@@H](C)CC(N)=O)c1ccc(Cl)c(C(=O)c2ccc(F)c(F)c2)c1F` [Example 90, (3S)-3-{[(1R)-1-{4-chloro-3-[(3,4-difluorophenyl)carbonyl]-2-fluorophenyl}propyl]amino}-butanamide], the IC50 at full length NS3/4a (setting [4]) is 0.13 µM. Moreover, the half-maximal cytotoxic concentration (CC50) at 72 h in series [2] was greater than 3000 nM. In series [1] (setting [6]), the EC50 was determined as 380 nM.
As for `[2H]C([2H])([2H])C([2H])([2H])[C@@H](N[C@@H](C)CC(N)=O)c1ccc(Cl)c(C(=O)c2ccc(N)c(C)c2)c1F` [Example 268, (3S)-3-{[(1R)-1-{3-[(4-amino-3-methylphenyl)carbonyl]-4-chloro-2-fluorophenyl}(2,2,3,3,3-deutero)propyl]amino}-butanamide], the IC50 is 0.19 µM on full length NS3/4a (setting [4]) and less than 1 µM on full length NS3/4a (setting [5]). Moreover, the EC50 in series [1] (setting [6]) stood at 16 nM.
Regarding `C[C@@H](CC(=O)NCCN)NCc1ccc(Cl)c(C(=O)c2ccccc2)c1F` [Example 282, (3S)—N-(2-aminoethyl)-3-{[(3-benzoyl-4-chloro-2-fluorophenyl)methyl]-amino}butanamide], 0.01 µM produced 65% inhibition against full length NS3/4a. In series [1] (setting [6]), the EC50 worked out at 3200 nM.
For `CC[C@@H](N[C@H](C)c1cnc[nH]1)c1ccc(Cl)c(C(=O)c2cccnc2)c1F` [Example 304, [(1R)-1-{4-chloro-2-fluoro-3-[(pyridin-3-yl)carbonyl]phenyl}propyl] [(1R)-1-(1H-imidazol-5-yl)ethyl]amine], the IC50 at full length NS3/4a (setting [4]) was 4.7 µM; at full length NS3/4a (setting [5]), 1 to 5 µM.
The matching figures for `CC[C@@H](N[C@@H](C)c1cnc[nH]1)c1ccc(Cl)c(C(=O)c2cccnc2)c1F` [Example 305, [(1R)-1-{4-chloro-2-fluoro-3-[(pyridin-3-yl)carbonyl]phenyl}propyl] [(1S)-1-(1H-imidazol-5-yl)ethyl]amine]: 1.1 µM and 1 to 5 µM.
The compound `CC[C@@H](NCCn1cccn1)c1ccc(Cl)c(C(=O)c2cccnc2)c1F` [Example 306, [(1R)-1-{4-chloro-2-fluoro-3-[(pyridin-3-yl)carbonyl]phenyl}propyl] [2-(1H-pyrazol-1-yl)ethyl] amine] had an inhibition at 100 µM against full length NS3/4a (@ 100 uM) of 59%. For the same compound, on full length NS3/4a (stated as IC50 less than 30 μM or at least 40% inhibition at a concentration of 100 μM, read-out: IC50 against the protease activity of the full length NS3/4a), the IC50 is less than 30 µM.
Turning to `CC[C@@H](NC)c1ccc(Cl)c(C(=O)c2ccc(N)nc2)c1F` [Example 307, 5-({6-chloro-2-fluoro-3-[(1R)-1-(methylamino)propyl]-phenyl}carbonyl)pyridin-2-amine], the IC50 was 0.34 µM on full length NS3/4a (setting [4]) and less than 1 µM on full length NS3/4a (setting [5]).
The matching figures for “(3S)-3-{[(1R)-1-{3-[(6- aminopyridazin-3- yl)carbonyl]-4-chloro-2- fluorophenyl}propyl]amino} butanamide [Example 232]”: 0.99 µM and less than 1 µM.
